Test results reported in patent publication US4608373A, “Cephem compounds” (Yamanouchi Pharmaceutical Co., Ltd., priority 1982, dated 1986).
≈ marks a conversion by molar mass, not a printed value. Counter-ions that a name gives are not always drawn. Like-named read-outs stand apart in the source and are kept apart here.

Assays:
Assay type in all cases: cell-based
Staph. aureus ATCC 6538P = test: Antibacterial activity (MIC), Staph. aureus ATCC 6538P; settings: Staphylococcus aureus, ATCC6538P, read-out: MIC (minimum effective inhibitory concentration)
Excerpt: (§1) Antibacterial activities (minimum effective inhibitory concentrations) of the compounds of formula I are shown in the following table in comparison with those of cefatazidime having the structure [drawing 5] and cefmenoxime having the structure [drawing 6]

Staph. aureus Smith = test: Antibacterial activity (MIC), Staph. aureus Smith; settings: Staphylococcus aureus, read-out: MIC (minimum effective inhibitory concentration)
Excerpt: as §1

Staph. aureus Terashima = test: Antibacterial activity (MIC), Staph. aureus Terashima; settings: Staphylococcus aureus, read-out: MIC (minimum effective inhibitory concentration)
Excerpt: as §1

E. coli Ebara = test: Antibacterial activity (MIC), E. coli Ebara; settings: Escherichia coli, read-out: MIC (minimum effective inhibitory concentration)
Excerpt: as §1

[1] = system: Kleb. pneumoniae ATCC 10031; test: Antibacterial activity (MIC), Kleb. pneumoniae ATCC 10031; settings: Klebsiella pneumoniae, ATCC10031, read-out: MIC (minimum effective inhibitory concentration)
Excerpt: as §1

Proteus morgani IID 602 = test: Antibacterial activity (MIC), Proteus morgani IID 602; settings: read-out: MIC (minimum effective inhibitory concentration)
Excerpt: as §1

Serr. marcescens IID 620 = test: Antibacterial activity (MIC), Serr. marcescens IID 620; settings: Serratia marcescens
Excerpt: as §1

[2] = system: Ent. aerogenes ATCC 13048 (MS-1); test: Antibacterial activity (MIC), Ent. aerogenes ATCC 13048 (MS-1); settings: Klebsiella aerogenes, ATCC13048, read-out: MIC (minimum effective inhibitory concentration)
Excerpt: as §1

Ent. cloacae V-8 = test: Antibacterial activity (MIC), Ent. cloacae V-8; settings: Enterobacter cloacae, V8, read-out: MIC (minimum effective inhibitory concentration)
Excerpt: as §1

[3] = system: Ps. aeruginosa NCTC 10490; test: Antibacterial activity (MIC), Ps. aeruginosa NCTC 10490; settings: Pseudomonas aeruginosa, NCTC10490, read-out: MIC (minimum effective inhibitory concentration)
Excerpt: as §1

Ps. aeruginosa IID 5142 = test: Antibacterial activity (MIC), Ps. aeruginosa IID 5142; settings: Pseudomonas aeruginosa, IID5142, read-out: MIC (minimum effective inhibitory concentration)
Excerpt: as §1

[4] = IID620, Serr. marcescens IID 620, read-out: MIC (minimum effective inhibitory concentration)

MIC (Staph. aureus ATCC 6538P) [µg/mL]	MIC (Staph. aureus Smith) [µg/mL]	MIC (Staph. aureus Terashima) [µg/mL]	MIC (E. coli Ebara; E. coli Ebara) [µg/mL]	MIC [1] [µg/mL]	MIC (Proteus morgani IID 602; Proteus morgani IID 602) [µg/mL]	MIC (Serr. marcescens IID 620; [4]) [µg/mL]	MIC [2] [µg/mL]	MIC (Ent. cloacae V-8) [µg/mL]	MIC [3] [µg/mL]	MIC (Ps. aeruginosa IID 5142) [µg/mL]	SMILES	MIC (E. coli Ebara) [µg/mL]	MIC (Proteus morgani IID 602) [µg/mL]	MIC (Serr. marcescens IID 620; IID620, read-out: MIC (minimum effective inhibitory concentration)) [µg/mL]
1.56 (≈ 2.72 µM)	1.56 (≈ 2.72 µM)	1.56 (≈ 2.72 µM)	0.78 (≈ 1.36 µM)	≤ 0.2	1.56 (≈ 2.72 µM)	0.39 (≈ 0.68 µM)	3.13 (≈ 5.46 µM)	6.25 (≈ 10.9 µM)	0.78 (≈ 1.36 µM)	12.5 (≈ 21.8 µM)	Nc1nc(CO/N=C(\C(=O)NC2C(=O)N3C(C(=O)[O-])=C(C[n+]4ccccn4)CSC23)c2csc(N)n2)cs1 (stereo not drawn) [Example 7, (Z)-7-{α-(2-amino-4-thiazolyl)-α-[(2-amino-4-thiazolyl)methoxyimino]acetamido}-3-(1-pyridadiniomethyl)-3-cephem-4-carboxylate]			
1.56 (≈ 2.72 µM)	0.78 (≈ 1.36 µM)	1.56 (≈ 2.72 µM)	0.78 (≈ 1.36 µM)	≤ 0.2	0.78 (≈ 1.36 µM)	0.78 (≈ 1.36 µM)	1.56 (≈ 2.72 µM)	6.25 (≈ 10.9 µM)	≤ 0.2	3.13 (≈ 5.47 µM)	Nc1nc(CO/N=C(\C(=O)NC2C(=O)N3C(C(=O)[O-])=C(C[n+]4ccccc4)CSC23)c2csc(N)n2)cs1 (stereo not drawn) [Example 8, (Z)-7-{α-(2-amino-4-thiazolyl)-α-[(2-amino-4-thiazolyl)methoxyimino]acetamido}-3-(1-pyridiniummethyl)-3-cephem-4-carboxylate]			
3.13	3.13	6.25	3.13	≤ 0.2	1.56	≤ 0.2	3.13	3.13	1.56	25	Nc1nc(CO/N=C(\C(=O)NC2C(=O)N3C(C(=O)[O-])=C(C[n+]4cccc(C(=O)O)c4)CSC23)c2csc(N)n2)cs1 (stereo not drawn) [Example 13, (Z)-7-{α-(2-amino-4-thiazolyl)-α-[(2-amino-4-thiazolyl)methoxyimino]acetamido}-3-(3-carboxylate-1-pyridiniomethyl)-3-cephem-4-carboxylatemono-sodium salt]			
3.13	3.13	6.25	3.13	≤ 0.2	0.78	≤ 0.2	1.56	3.13	0.39	12.5	Nc1nc(CO/N=C(\C(=O)NC2C(=O)N3C(C(=O)[O-])=C(C[n+]4ccc(C(=O)O)cc4)CSC23)c2csc(N)n2)cs1 (stereo not drawn) [Example 14, (Z)-7-{α-(2-amino-4-thiazolyl)-α-[(2-amino-4-thiazolyl)methoxyimino]acetamido}-3-(4-carboxylate-1-pyridiniomethyl)-3-cephem-4-carboxylatemono-sodium salt]			
3.13 (≈ 5.32 µM)	6.25 (≈ 10.6 µM)	6.25 (≈ 10.6 µM)	1.56 (≈ 2.65 µM)	≤ 0.2	0.78 (≈ 1.33 µM)	0.39 (≈ 0.663 µM)	3.13 (≈ 5.32 µM)	6.25 (≈ 10.6 µM)	1.56 (≈ 2.65 µM)	25 (≈ 42.5 µM)	Nc1nc(CO/N=C(\C(=O)NC2C(=O)N3C(C(=O)[O-])=C(C[n+]4cccc(O)c4)CS[C@H]23)c2csc(N)n2)cs1 (stereo partly drawn) [Example 16, (Z)-7-{α-(2-amino-4-thiazolyl)-α-[(2-amino-4-thiazolyl)methoxyimino]acetamido}-3-(3-hydroxy-1-pyridiniomethyl]-3-cephem-4-carboxylate]			

Further lines, the compound ahead of its results:

SMILES	MIC (Staph. aureus ATCC 6538P) [µg/mL]	MIC (Staph. aureus Smith) [µg/mL]	MIC (Staph. aureus Terashima) [µg/mL]	MIC (E. coli Ebara; E. coli Ebara) [µg/mL]	MIC [1] [µg/mL]	MIC (Proteus morgani IID 602; Proteus morgani IID 602) [µg/mL]	MIC (Serr. marcescens IID 620; [4]) [µg/mL]	MIC [2] [µg/mL]	MIC (Ent. cloacae V-8) [µg/mL]	MIC [3] [µg/mL]	MIC (Ps. aeruginosa IID 5142) [µg/mL]	MIC (E. coli Ebara) [µg/mL]	MIC (Proteus morgani IID 602) [µg/mL]	MIC (Serr. marcescens IID 620; IID620, read-out: MIC (minimum effective inhibitory concentration)) [µg/mL]
CC1=C(C(=O)O)N2C(=O)C(NC(=O)/C(=N\OCc3csc(N)n3)c3csc(N)n3)[C@H]2SC1 (stereo partly drawn) [1(b), (Z)-7-{α-(2-amino-4-thiazolyl)-α-[(2-amino-4-thiazolyl)methoxyimino]acetamido}-3-methyl-3-cephem-4-carboxylic acid]	3.13 (≈ 6.32 µM)	6.25 (≈ 12.6 µM)	12.5 (≈ 25.2 µM)	1.56 (≈ 3.15 µM)	≤ 0.2	3.13 (≈ 6.32 µM)	1.56 (≈ 3.15 µM)	6.25 (≈ 12.6 µM)	6.25 (≈ 12.6 µM)	6.25 (≈ 12.6 µM)				
CC(=O)OCC1=C(C(=O)O)N2C(=O)C(NC(=O)/C(=N\OCc3csc(N)n3)c3csc(N)n3)[C@H]2SC1 (stereo partly drawn) [2(b), (Z)-7-{α-(2-amino-4-thiazolyl)-α-[(2-amino-4-thiazolyl)methoxyimino]acetamido}-3-acetoxymethyl-3-cephem-4-carboxylic acid]	1.56 (≈ 2.82 µM)	1.56 (≈ 2.82 µM)	3.13 (≈ 5.65 µM)	≤ 0.2	≤ 0.2	0.39 (≈ 0.704 µM)	0.78 (≈ 1.41 µM)	1.56 (≈ 2.82 µM)	3.13 (≈ 5.65 µM)	0.39 (≈ 0.704 µM)	25 (≈ 45.2 µM)			
CSC1=C(C(=O)O)N2C(=O)C(NC(=O)/C(=N\OCc3csc(N)n3)c3csc(N)n3)[C@H]2SC1 (stereo partly drawn) [3(b), (Z)-7-{α-(2-amino-4-thiazolyl)-α-[(2-amino-4-thiazolyl)methoxyimino]acetamido}-3-methylthio-3-cephem-4-carboxylic acid]	0.78 (≈ 1.48 µM)	0.78 (≈ 1.48 µM)	1.56 (≈ 2.96 µM)	3.13 (≈ 5.93 µM)	≤ 0.2	1.56 (≈ 2.96 µM)	1.56 (≈ 2.96 µM)	6.25 (≈ 11.8 µM)	3.13 (≈ 5.93 µM)	1.56 (≈ 2.96 µM)				
CC(C)(O/N=C(\C(=O)N[C@@H]1C(=O)N2C(C(=O)[O-])=C(C[n+]3ccccc3)CS[C@H]12)c1csc(N)n1)C(=O)O [CD, Ceftazidime, reference compound]	6.25 (≈ 11.4 µM)	6.25 (≈ 11.4 µM)	12.5 (≈ 22.9 µM)		≤ 0.2			0.39 (≈ 0.714 µM)	1.56 (≈ 2.85 µM)	0.78 (≈ 1.43 µM)	1.56 (≈ 2.85 µM)	≤ 0.2	≤ 0.2	≤ 0.2
CO/N=C(\C(=O)N[C@@H]1C(=O)N2C(C(=O)O)=C(CSc3nnnn3C)CS[C@H]12)c1csc(N)n1 [CX, Cefmenoxime, reference compound]	3.13 (≈ 6.12 µM)	6.25 (≈ 12.2 µM)	12.5 (≈ 24.4 µM)	0.2 (≈ 0.391 µM)	≤ 0.2	≤ 0.2	0.2 (≈ 0.391 µM)		3.13 (≈ 6.12 µM)	1.56 (≈ 3.05 µM)	100 (≈ 195 µM)			
Cn1nc(O)c(=O)nc1SCC1=C(C(=O)O)N2C(=O)C(NC(=O)/C(=N\OCc3csc(N)n3)c3csc(N)n3)[C@H]2SC1 (stereo partly drawn) [Example 5, (Z)-7-{α-(2-amino-4-thiazolyl)-α-[(2-amino-4-thiazolyl)methoxyimino]acetamido}-3-{[(2,5-dihydro-6-hydroxy-2-methyl-5-oxo-as-triazine-3-yl)thio]methyl}-3-cephem-4-carboxylic acid]	3.13 (≈ 4.8 µM)	3.13 (≈ 4.8 µM)	12.5 (≈ 19.2 µM)	≤ 0.2	≤ 0.2	0.39 (≈ 0.597 µM)	0.78 (≈ 1.19 µM)	1.56 (≈ 2.39 µM)	1.56 (≈ 2.39 µM)	1.56 (≈ 2.39 µM)	12.5 (≈ 19.2 µM)			
Cn1nnnc1SCC1=C(C(=O)O)N2C(=O)C(NC(=O)/C(=N\OCc3csc(N)n3)c3csc(N)n3)C2SC1 (stereo not drawn) [Example 6]	0.78 (≈ 1.28 µM)	0.78 (≈ 1.28 µM)	1.56 (≈ 2.56 µM)	≤ 0.2	≤ 0.2	0.39 (≈ 0.64 µM)	0.39 (≈ 0.64 µM)	1.56 (≈ 2.56 µM)	1.56 (≈ 2.56 µM)	≤ 0.2	12.5 (≈ 20.5 µM)			
NC(=O)c1cc[n+](CC2=C(C(=O)[O-])N3C(=O)C(NC(=O)/C(=N\OCc4csc(N)n4)c4csc(N)n4)C3SC2)cc1 (stereo not drawn) [Example 9, (Z)-7-{α-(2-amino-4-thiazolyl)-α-[(2-amino-4-thiazolyl)methoxyimino]acetamido}-3-(4-carbamoyl-1-pyridiniummethyl)-3-cephem-4-carboxylate]	1.56 (≈ 2.53 µM)	1.56 (≈ 2.53 µM)	1.56 (≈ 2.53 µM)	≤ 0.2	≤ 0.2	0.39 (≈ 0.633 µM)	0.78 (≈ 1.27 µM)	1.56 (≈ 2.53 µM)	3.13 (≈ 5.08 µM)	0.39 (≈ 0.633 µM)	6.25 (≈ 10.2 µM)			
Nc1nc(CO/N=C(\C(=O)NC2C(=O)N3C(C(=O)[O-])=C(C[n+]4cccc(CC(=O)O)c4)CSC23)c2csc(N)n2)cs1 (stereo not drawn) [Example 12, (Z)-7-{α-(2-amino-4-thiazolyl)-α-[(2-amino-4-thiazolyl)methoxyimino]acetamido}-3-(3-carboxylatemethyl-1-pyridiniomethyl)-3-cephem-4-carboxylate mono-sodium salt]	3.13	3.13	6.25	1.56	≤ 0.2	0.78	≤ 0.2	1.56	3.13	1.56	25			
Nc1nc(CO/N=C(\C(=O)NC2C(=O)N3C(C(=O)[O-])=C(C[n+]4ccc(CO)cc4)CS[C@H]23)c2csc(N)n2)cs1 (stereo partly drawn) [Example 15, (Z)-7-{α-(2-amino-4-thiazolyl)-α-[(2-amino-4-thiazolyl)methoxyimino]acetamido}-3-(4-hydroxymethyl-1-pyridiniomethyl)-3-cephem-4-carboxylate]	1.56 (≈ 2.59 µM)	1.56 (≈ 2.59 µM)	1.56 (≈ 2.59 µM)	≤ 0.2	≤ 0.2	1.56 (≈ 2.59 µM)	≤ 0.2	1.56 (≈ 2.59 µM)	3.13 (≈ 5.19 µM)	≤ 0.2	6.25 (≈ 10.4 µM)			
